In one experiment the target is T1, His-hMAGL (recombinant polyhistidine tagged human MAGL protein) (Homo sapiens, UniProt Q99685).
T1 construct: made in house; host or cells: E. coli BL21(DE3)
T1 sequence (Q99685 1-303): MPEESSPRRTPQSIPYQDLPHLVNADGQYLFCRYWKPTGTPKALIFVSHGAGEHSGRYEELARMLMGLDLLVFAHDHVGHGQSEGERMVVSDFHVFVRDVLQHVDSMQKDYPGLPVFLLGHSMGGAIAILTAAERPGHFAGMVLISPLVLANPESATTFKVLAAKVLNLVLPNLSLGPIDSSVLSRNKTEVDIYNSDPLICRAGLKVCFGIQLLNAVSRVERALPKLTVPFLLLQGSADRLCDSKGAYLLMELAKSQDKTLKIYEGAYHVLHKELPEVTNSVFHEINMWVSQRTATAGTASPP
In words: Measurement of MAGL inhibitory activity (arachidonic acid production from 2-arachidonylglycerol, RapidFire-mass spectrometry). The note with it: MAGL inhibitory rate at 10 μM test compound; 60 min preincubation with His-hMAGL, 2-arachidonylglycerol substrate, 10 min reaction at room temperature. It counts as biochemical. The essentials: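 Inhibition (%) was derived from arachidonic acid levels relative to enzyme-free and compound-free groups. Product was measured by online C4 solid-phase extraction and triple-quadrupole MS in negative SRM mode, corrected by arachidonic acid-d8 (3 μM in the acetonitrile added). Substrate was 2-arachidonylglycerol; enzyme was His-tagged recombinant human MAGL.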
In general, inhibition refers to the drop in the measured response relative to a control, in per cent. Consider `CC(Oc1cc(F)cc(F)c1)C1CN(C(=O)c2cc3c(cc2F)OCC(=O)N3)C1` (stereo not shown) [Example 305, 6-((3-(1-(3,5-difluorophenoxy)ethyl)azetidin-1-yl)carbonyl)-7-fluoro-2H-1,4-benzoxazin-3(4H)-one], for which the inhibition at 10 µM was found to be 100%.

For `CC(Oc1c(F)cccc1F)C1CN(C(=O)c2cc3c(cc2F)OCC(=O)N3)C1` (stereo not shown) [Example 306, 6-((3-(1-(2,6-difluorophenoxy)ethyl)azetidin-1-yl)carbonyl)-7-fluoro-2H-1,4-benzoxazin-3(4H)-one], the inhibition at 10 µM is 100%. The same measure, in the same setting: under `CC(C)(Oc1ccc(F)cc1F)C1CN(C(=O)c2cc3c(cc2F)OCC(=O)N3)C1` [Example 308, 6-((3-(2-(2,4-difluorophenoxy)propan-2-yl)azetidin-1-yl)carbonyl)-7-fluoro-2H-1,4-benzoxazin-3 (4H)-one] stands 104%; under `COCC(Oc1ccc(Cl)cc1F)C1CN(C(=O)c2cc3c(cc2F)OCC(=O)N3)C1` (stereo not shown) [Example 309, 6-((3-(1-(4-chloro-2-fluorophenoxy)-2-methoxyethyl)azetidin-1-yl)carbonyl)-7-fluoro-2H-1,4-benzoxazin-3(4H)-one], 98%. The same measure, in the same setting: as for `O=C1COc2cc(F)c(C(=O)N3CC(OCc4ccc(F)cc4Cl)C3)cc2N1` [Example 322, 6-((3-((2-chloro-4-fluorobenzyl)oxy)azetidin-1-yl)carbonyl)-7-fluoro-2H-1,4-benzoxazin-3(4H)-one], the figure is 101%.

For the compound `O=C1COc2ccc(C(=O)N3CC(OCc4ccc(F)cc4Cl)C3)cc2N1` [Example 323, 6-((3-((2-chloro-4-fluorobenzyl)oxy)azetidin-1-yl)carbonyl)-2H-1,4-benzoxazin-3(4H)-one], the inhibition at 10 µM is 99%.

`O=C1COc2cc(F)c(C(=O)N3CC(OCc4ccc(Cl)cc4Cl)C3)cc2N1` [Example 324, 6-((3-((2,4-dichlorobenyzl)oxy)azetidin-1-yl)carbonyl)-7-fluoro-2H-1,4-benzoxazin-3(4H)-one]: the inhibition at 10 µM turned out to be 102%.

As for `O=C1COc2ccc(C(=O)N3CC(OCc4ccc(Cl)cc4Cl)C3)cc2N1` [Example 325, 6-((3-((2,4-dichlorobenzyl)oxy)azetidin-1-yl)carbonyl)-2H-1,4-benzoxazin-3(4H)-one], the inhibition at 10 µM amounted to 101%. Same read-out and setting: under `O=C1COc2ccc(C(=O)N3CC(OCc4ccccc4)C3)cc2N1` [Example 326, 6-((3-(benzyloxy)azetidin-1-yl)carbonyl)-2H-1,4-benzoxazin-3(4H)-one] stands 98%; under `O=C1COc2cc(F)c(C(=O)N3CC(OCc4ccccc4)C3)cc2N1` [Example 327, 6-((3-(benzyloxy)azetidin-1-yl)carbonyl)-7-fluoro-2H-1,4-benzoxazin-3(4H)-one], 99%; under `COc1cccc(COC2CN(C(=O)c3cc4c(cc3F)OCC(=O)N4)C2)c1` [Example 328, 7-fluoro-6-((3-((3-methoxybenzyl)oxy)azetidin-1-yl)carbonyl)-2H-1,4-benzoxazin-3(4H)-one], 101%.

Consider `Cc1cccc(COC2CN(C(=O)c3cc4c(cc3F)OCC(=O)N4)C2)c1` [Example 329, 7-fluoro-6-((3-((3-methylbenzyl)oxy)azetidin-1-yl)carbonyl)-2H-1,4-benzoxazin-3(4H)-one], for which the inhibition at 10 µM came out at 100%. Take `O=C1COc2cc(F)c(C(=O)N3CC(OCc4ccccc4F)C3)cc2N1` [Example 330, 7-fluoro-6-((3-((2-fluorobenzyl)oxy)azetidin-1-yl)carbonyl)-2H-1,4-benzoxazin-3(4H)-one]: the inhibition at 10 µM was found to be 102%. The same measure, in the same setting: under `O=C1COc2cc(F)c(C(=O)N3CC(OCc4cccc(F)c4)C3)cc2N1` [Example 331, 7-fluoro-6-((3-((3-fluorobenzyl)oxy)azetidin-1-yl)carbonyl)-2H-1,4-benzoxazin-3(4H)-one] stands 100%; under `O=C1COc2cc(F)c(C(=O)N3CC(OCc4ccc(F)cc4)C3)cc2N1` [Example 332, 7-fluoro-6-((3-((4-fluorobenzyl)oxy)azetidin-1-yl)carbonyl)-2H-1,4-benzoxazin-3(4H)-one], 98%; under `N#Cc1ccccc1COC1CN(C(=O)c2cc3c(cc2F)OCC(=O)N3)C1` [Example 333, 2-(((1-((7-fluoro-3-oxo-3,4-dihydro-2H-1,4-benzoxazin-6-yl)carbonyl)azetidin-3-yl)oxy)methyl) benzonitrile], 101%. The same measure, in the same setting: as for `N#Cc1cccc(COC2CN(C(=O)c3cc4c(cc3F)OCC(=O)N4)C2)c1` [Example 334, 3-(((1-((7-fluoro-3-oxo-3,4-dihydro-2H-1,4-benzoxazin-6-yl)carbonyl)azetidin-3-yl)oxy)methyl) benzonitrile], the figure is 98%; as for `N#Cc1ccc(COC2CN(C(=O)c3cc4c(cc3F)OCC(=O)N4)C2)cc1` [Example 335, 4-(((1-((7-fluoro-3-oxo-3,4-dihydro-2H-1,4-benzoxazin-6-yl)carbonyl)azetidin-3-yl)oxy)methyl) benzonitrile], 102%. The same measure, in the same setting: under `O=C1COc2cc(F)c(C(=O)N3CC(OCc4cccc(Cl)c4)C3)cc2N1` [Example 336, 6-((3-((3-chlorobenzyl)oxy)azetidin-1-yl)carbonyl)-7-fluoro-2H-1,4-benzoxazin-3(4H)-one] stands 101%; under `CS(=O)(=O)c1ccc(COC2CN(C(=O)c3cc4c(cc3F)OCC(=O)N4)C2)cc1` [Example 337, 7-fluoro-6-((3-((4-(methylsulfonyl)benzyl)oxy)azetidin-1-yl)carbonyl)-2H-1,4-benzoxazin-3(4H)-one], 92%.

Take `O=C1COc2cc(F)c(C(=O)N3CC(OCc4ccc(-n5cccn5)cc4)C3)cc2N1` [Example 338, 7-fluoro-6-((3-((4-(1H-pyrazol-1-yl)benzyl)oxy)azetidin-1-yl)carbonyl)-2H-1,4-benzoxazin-3(4H)-one]: the inhibition at 10 µM is 101%.

For the compound `O=C1COc2cc(F)c(C(=O)N3CC(OCc4cccc(C(F)F)c4)C3)cc2N1` [Example 339], the inhibition at 10 µM was 103%. Same read-out and setting: as for `O=C1COc2cc(F)c(C(=O)N3CC(OCc4cccc(OC(F)F)c4)C3)cc2N1` [Example 340], the figure is 100%; as for `O=C1COc2cc(F)c(C(=O)N3CC(OCc4ccccc4OC(F)F)C3)cc2N1` [Example 341], 101%; as for `O=C1COc2cc(F)c(C(=O)N3CC(OCc4ccccc4Cl)C3)cc2N1` [Example 342, 6-((3-((2-chlorobenzyl)oxy)azetidin-1-yl)carbonyl)-7-fluoro-2H-1,4-benzoxazin-3(4H)-one], 102%.

As for `O=C1COc2cc(F)c(C(=O)N3CC(OCc4ccc(Cl)cc4)C3)cc2N1` [Example 343, 6-((3-((4-chlorobenzyl)oxy)azetidin-1-yl)carbonyl)-7-fluoro-2H-1,4-benzoxazin-3(4H)-one], the inhibition at 10 µM came to 102%.

Staying with this experiment, now noted: MAGL inhibitory rate at 10 μM test compound; 60 min preincubation with His-hMAGL, 2-arachidonylglycerol substrate, 10 min reaction at room temperature; 10 µM.
For the compound `CC(Oc1cccc(F)c1F)C1CN(C(=O)c2cc3c(cc2F)OCC(=O)N3)C1` (stereo not shown) [Example 310, 6-((3-(1-(2,3-difluorophenoxy)ethyl)azetidin-1-yl)carbonyl)-7-fluoro-2H-1,4-benzoxazin-3(4H)-one], the “% inhibition (10 μM)” value worked out at 99%.

In the case of `CC(Oc1cccc(F)c1F)C1CN(C(=O)c2cc3c(cc2F)OCC(=O)N3)C1` (stereo not shown) [Example 311, 6-((3-(1-(2,3-difluorophenoxy)ethyl)azetidin-1-yl)carbonyl)-7-fluoro-2H-1,4-benzoxazin-3(4H)-one], the “% inhibition (10 μM)” value was found to be 103%. In the case of `CC(Oc1ccc(F)c(F)c1)C1CN(C(=O)c2cc3c(cc2F)OCC(=O)N3)C1` (stereo not shown) [Example 312, 6-((3-(1-(3,4-difluorophenoxy)ethyl)azetidin-1-yl)carbonyl)-7-fluoro-2H-1,4-benzoxazin-3(4H)-one], the “% inhibition (10 μM)” value was determined as 101%. As for `CC(Oc1ccc(F)c(F)c1)C1CN(C(=O)c2cc3c(cc2F)OCC(=O)N3)C1` (stereo not shown) [Example 313, 6-((3-(1-(3,4-difluorophenoxy)ethyl)azetidin-1-yl)carbonyl)-7-fluoro-2H-1,4-benzoxazin-3(4H)-one], the “% inhibition (10 μM)” value turned out to be 103%. Same read-out and setting: as for `CC(Oc1cc(F)cc(F)c1)C1CN(C(=O)c2cc3c(cc2F)OCC(=O)N3)C1` (stereo not shown) [Example 314, 6-((3-(1-(3,5-difluorophenoxy)ethyl)azetidin-1-yl)carbonyl)-7-fluoro-2H-1,4-benzoxazin-3(4H)-one], the figure is 98%; as for `CC(Oc1cc(F)cc(F)c1)C1CN(C(=O)c2cc3c(cc2F)OCC(=O)N3)C1` (stereo not shown) [Example 315, 6-((3-(1-(3,5-difluorophenoxy)ethyl)azetidin-1-yl)carbonyl)-7-fluoro-2H-1,4-benzoxazin-3(4H)-one], 102%; as for `CC(Oc1cc(F)ccc1F)C1CN(C(=O)c2cc3c(cc2F)OCC(=O)N3)C1` (stereo not shown) [Example 319, 6-((3-(1-(2,5-difluorophenoxy)ethyl)azetidin-1-yl)carbonyl)-7-fluoro-2H-1,4-benzoxazin-3(4H)-one], 101%. Same read-out and setting: as for `CC(Oc1cc(F)ccc1F)C1CN(C(=O)c2cc3c(cc2F)OCC(=O)N3)C1` (stereo not shown) [Example 320, 6-((3-(1-(2,5-difluorophenoxy)ethyl)azetidin-1-yl)carbonyl)-7-fluoro-2H-1,4-benzoxazin-3(4H)-one], the figure is 100%.

These data come from patent publication US10106556B2, “Heterocyclic compound” (TAKEDA PHARMACEUTICAL COMPANY LIMITED, priority 2015, dated 2018).
